Patent US8119624B2, “Fused phenyl amido heterocyclic compounds” (Pfizer Inc., priority 2006, dated 2012)
Where two headings read alike, the source gives them in different places.

Biological target: T1, Full-length glucokinase (beta cell isoform) (Homo sapiens, UniProt P35557)
T1 construct: Full-length glucokinase (beta cell isoform) was His-tagged at N-terminus; His tag (N); made in house
T1 sequence (P35557 1-465): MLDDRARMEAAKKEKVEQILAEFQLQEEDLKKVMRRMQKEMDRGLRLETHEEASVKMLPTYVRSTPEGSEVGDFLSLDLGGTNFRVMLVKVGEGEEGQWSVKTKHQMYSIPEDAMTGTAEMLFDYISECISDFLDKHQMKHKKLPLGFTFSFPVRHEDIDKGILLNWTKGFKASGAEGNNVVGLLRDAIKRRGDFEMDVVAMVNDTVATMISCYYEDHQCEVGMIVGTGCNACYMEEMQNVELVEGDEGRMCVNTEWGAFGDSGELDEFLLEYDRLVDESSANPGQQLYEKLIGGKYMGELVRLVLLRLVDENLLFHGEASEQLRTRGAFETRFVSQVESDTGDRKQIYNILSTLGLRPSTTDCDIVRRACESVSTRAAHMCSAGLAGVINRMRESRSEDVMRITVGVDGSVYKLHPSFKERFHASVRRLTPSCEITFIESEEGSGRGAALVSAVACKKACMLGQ
Assay: Glucokinase biochemical assay (PK/LDH-coupled, NADH depletion at 340 nm): % activation, EC50, % max activation
Conditions: 5 mM glucose; for activation at 10 µM: read-out: % Activation at 10 uM; for EC50: read-out: EC50; for Emax: fitted maximum activation, read-out: % Max Activation
Description: Full-length glucokinase (beta cell isoform) was His-tagged at N-terminus and purified by a Ni column followed by size exclusion chromatography. Glucose was obtained from Calbiochem, and other reagents were from Sigma.
All assays were performed in a Corning 96-well plate using Spectramax PLUS spectrophotometer (Molecular Devices) at room temperature. The final assay volume was 100 uL. The buffer conditions used in this assay were as follows: 50 mM HEPES, 5 mM glucose, 1 mM ATP, 2 mM MgCl2, 0.7mM NADH, 2 mM DTT, 1 Unit/mL PK/LDH, 0.2 mM phosphoenolpyruvate, 25 mM KCl. Tested compound in DMSO solution was added to the buffer and mixed well by a plate shaker for 1 minute. The final concentration of DMSO introduced into the assay was 1%.
Glucokinase was added to the buffer mixture to initiate the reaction in the presence and absence of compound. Reaction was monitored by absorbance at 340nm due to the depletion of NADH. The initial reaction velocity was measured by the slope of a linear time course of 200-900 sec.
The percentage of activation was calculated by the following equation: % Activation=(Va/Vo−1)×100;
wherein each of Va and Vo is defined as the initial reaction velocity in the presence and absence of the tested compound, respectively.
The GK activities were measured as a function of compound concentrations.

[1] = 10 uM compound, % Activation=(Va/Vo−1)×100
[2] = compound at 10 uM, 1 mM ATP, room temperature

Structure (SMILES)	activation at 10 µM [1] [%]	EC50 (GK activation) [nM]	Emax [%]	EC50 (1 mM ATP, room temperature) [nM]	activation at 10 µM [2] [%]	Emax (1 mM ATP) [%]
Cn1ccc(NC(=O)c2cc(Oc3cccc(S(C)(=O)=O)c3)c3c(c2)OC(C)(C)C3)n1 [Example 36, 4-(3-Methanesulfonyl-phenoxy)-2,2-dimethyl-2,3-dihydro-benzofuran-6-carboxylic acid(1-methyl-1H-pyrazol-3-yl)-amide]	130	1100	149	–	–	–
Cc1cc2cc(Oc3ccc(S(C)(=O)=O)cc3)cc(C(=O)Nc3ccn(C)n3)c2o1 [Example 4, 5-(4-Methanesulfonyl-phenoxy)-2-methyl-benzofuran-7-carboxylic acid(1-methyl-1H-pyrazol-3-yl)-amide]	14.6	–	–	–	–	–
CC(C)CN1CCc2c(Oc3ccc(C(=O)N(C)C)c(F)c3)cc(C(=O)Nc3ccn(C)n3)cc2C1=O [Example 392, 5-(4-(Dimethylcarbamoyl)-3-fluorophenoxy)-2-isobutyl-N-(1-methyl-1H-pyrazol-3-yl)-1-oxo-1,2,3,4-tetrahydroisoquinoline-7-carboxamide]	–	–	–	> 10000	48.6	–
CN(C)C(=O)c1ccc(Oc2cc(C(=O)Nc3ccn(C)n3)cc3ccoc23)cc1 [Example 334, 7-{4-[(Dimethylamino)carbonyl]phenoxy}-N-(1-methyl-1H-pyrazol-3-yl)-1-benzofuran-5-carboxamide]	35	–	–	–	–	–
Cn1ccc(NC(=O)c2cc(OCc3ccccc3)c3c(c2)OC(C(F)F)C3)n1 (stereo not drawn) [Example 222, 4-Benzyloxy-2-difluoromethyl-2,3-dihydro-benzofuran-6-carboxylic acid (1-methyl-1H-pyrazol-3-yl)-amide]	61.1	> 10000	–	–	–	–
Cn1ccc(NC(=O)c2cc(Oc3cc(F)c(C(=O)N4CCC4)c(F)c3)c3c(c2)OC(C)(C)C3)n1 [Example 110, 4-[4-(Azetidine-1-carbonyl)-3,5-difluoro-phenoxy]-2,2-dimethyl-2,3-dihydro-benzofuran-6-carboxylic acid (1-methyl-1H-pyrazol-3-yl)-amide]	139	72	131	–	–	–
Cn1ccc(NC(=O)c2cc(Oc3ccc(C(=O)N4CC(F)(F)C4)cc3)c3c(c2)OC(C)(C)C3)n1 [Example 50, 4-[4-(3,3-Difluoro-azetidine-1-carbonyl)-phenoxy]-2,2-dimethyl-2,3-dihydro-benzofuran-6-carboxylic acid(1-methyl-1H-pyrazol-3-yl)-amide]	146	564	149	–	–	–
CCN1Cc2c(Oc3ccc(S(C)(=O)=O)cc3)cc(C(=O)Nc3ccc(C)cn3)cc2C1=O [Example 379, 2-Ethyl-N-(5-methylpyridin-2-yl)-7-(4-(methylsulfonyl)-phenoxy)-3-oxoisoindoline-5-carboxamide]	–	–	–	4500	74.1	98
Cn1ccc(NC(=O)c2cc(OCc3cc(O)nc(C4CC4)n3)c3c(c2)OC(C)(C)C3)n1 [Example 95, 4-(2-Cyclopropyl-6-hydroxy-pyrimidin-4-ylmethoxy)-2,2-dimethyl-2,3-dihydro-benzofuran-6-carboxylic acid (1-methyl-1H-pyrazol-3-yl)-amide]	143	625	145	–	–	–
Cc1cc(NC(=O)c2cc(Oc3ccc(C(=O)N(C)C)c(F)c3)c3c(c2)OC(C)(C)C3)no1 [Example 143, 4-(4-Dimethylcarbamoyl-3-fluoro-phenoxy)-2,2-dimethyl-2,3-dihydro-benzofuran-6-carboxylic acid (5-methyl-isoxazol-3-yl)-amide]	47.8	179	50	–	–	–
CN(C)C(=O)c1ccc(Oc2cc(C(=O)Nc3ccc(CO)cn3)cc3c2CC(C)(C)O3)cc1 [Example 155, 4-(4-Dimethylcarbamoyl-phenoxy)-2,2-dimethyl-2,3-dihydro-benzofuran-6-carboxylic acid (5-hydroxymethyl-pyridin-2-yl)-amide]	38.4	90	43	–	–	–
